4 compounds from patent US20040043380A1, “T cell line and use thereof” (priority 2000, published 2004) can be followed below.

The experiment concerns HIV-1 BaL strain. Nature of the experiment: Anti-HIV-1 activity: alkaline phosphatase reporter in MOLT-4/CCR5/LTR-SEAP cells infected with HIV-1 BaL strain. Type of experiment: cell-based. The following applies: for EC50: read-out: EC50 (activity of inhibiting viral growth by 50%); for EC90: read-out: EC90 (activity of inhibiting viral growth by 90%). As to the method: The alkaline phosphatase activity was measured by using Great EscAPe SEAP Detection Kit manufactured by Clontech. Fifty microliters of a diluent was added to 15 μl of the culture supernatant and incubated at 65° C. for 30 minutes. The reaction solution was cooled to room temperature, and then 50 μl of the reaction solution was transferred to a white plate, and 50 μl of an assay buffer was added thereto and incubated at room temperature for 5 minutes. Fifty microliters of a luminescence substrate was added thereto, incubated at room temperature for 10 minutes, and measured for chemiluminescence by a luminometer.
A mixture of 2×10^4of MOLT-4/CCR5/LTR-SEAP cells, 1000 CCID50 (cell culture infective dose 50%) of the virus and a test compound (Table 1) at various concentrations was cultured at 37° C. in 5% CO2 gas for 5 days. A quarter of the culture was subcultured for 5 days. On the tenth day after the infection, the culture supernatant was recovered, and the alkaline phosphatase activity was measured. The anti-HIV-1 activity (the inhibition rate) of a test compound was calculated from the following formula:
Inhibition rate (%)=(1−(chemiluminescence^1/chemiluminescence^2))×100
Chemiluminescence^1=chemiluminescence with addition of a test compound (ii)−chemiluminescence without viral infection (iii).
Chemiluminescence^2=chemiluminescence without addition of a test compound (i)−chemiluminescence without viral infection (iii).

[1] abbreviates: MOLT-4/CCR5/LTR-SEAP cells, 1000 CCID50 HIV-1 BaL strain, alkaline phosphatase activity in culture supernatant on tenth day after infection.
Setting [2] is: Human immunodeficiency virus 1, BAL.

Where two headings read alike, the source gives them in different places.

Regarding `Cc1ccc(-c2ccc3c(c2)C=C(C(=O)Nc2ccc(C[N+](C)(C)C4CCOCC4)cc2)CCC3)cc1` [Compound 4, N,N-dimethyl-N-(4-(((2-(4-methylphenyl)-6,7-dihydro-5H-benzocyclohepten-8-yl)carbonyl)-N-(4-tetrahydropyranyl)ammonium chloride], under setting [1], the EC50 (in general, the concentration needed to bring the measured effect to its halfway point) turned out to be 0.021 µM and the EC90 – broadly, the point of the concentration-response curve where the effect stands at 90% – stood at 0.68 µM.
On to `Cc1cn([C@H]2C=C[C@@H](CO)O2)c(=O)[nH]c1=O` [Compound 1, 2′,3′-didehydro-3′-deoxythymidine], for which, under setting [2], the EC50 was determined as 0.016 µM and the EC90 was found to be 0.26 µM.
`Cc1ccnc2c1NC(=O)c1cccnc1N2C1CC1` [Compound 2, 11-cyclopropyl-5,11-dihydro-4-methyl-6H-dipyrido[3,2-b:2′,3′-e] [1,4]diazepin-6-one]: the EC90 under setting [2] stood at 0.35 µM. Besides, where the note is “Human immunodeficiency virus 1, MOLT-4/CCR5/LTR-SEAP cells, 1000 CCID50 HIV-1 BaL strain, alkaline phosphatase activity in culture supernatant on tenth day after infection”, the EC50 was determined as 0.04 µM.
In the case of `Cc1c(O)cccc1C(=O)N[C@@H](CSc1ccccc1)[C@H](O)CN1C[C@H]2CCCC[C@H]2C[C@H]1C(=O)NC(C)(C)C` [Compound 3, (-)-(3S,4aS,8aS)-N-tert-butyl-2-[(2R,3R)-2-hydroxy-3-(3-hydroxy-2-methylbenzoylamino)-4-(phenylthio)butyl]decahydroisoquinoline-3-carboxamide monomethanesulfonate], under setting [2], the EC50 was determined as 0.00067 µM and the EC90 is 0.17 µM.
